This is an account of results in US9394544B2, “Ameliorating oxidative stress in neurodegenerative disease via Nox1 targeting” (University of Central Florida Research Foundation, Inc., priority 2013, dated 2016).

The subject of one assay is α-synuclein. Put plainly: α-Synuclein protein levels (immunoblot) in N27 cells exposed to PQ. The class given is cell-based, rat. As to the method: The N27 cells were grown in RPMI 1640 medium containing 10% fetal bovine serum (FBS), 100 U penicillin, and 50 μg/ml streptomycin, in a humidified atmosphere of 5% CO2 at 37° C. N27 cultures were prepared for experiments by plating the cells on polystyrene tissue culture dishes at a density of 0.5×10^5 cells/well in 24-well culture plates with glass coverslip and at 1.5×10^5 cells/well in 6-well culture plates.
For Western blot, brain tissues were lysed on ice in radioimmunoprecipitation assay buffer containing 50 mMTris/HCl, pH 8.0, 150 mM NaCl, 2 mM sodium orthovanadate, 1% Nonidet-P40 (NP-40), 0.5% sodium deoxycholate, and 0.1% SDS, containing 1% of a protease inhibitor mixture (AEBSF, pepstatinA, E-64, bestatin, leupeptin, and aprotinin). The soluble fraction was obtained and equal amounts of cell lysate protein were loaded in each lane of a 12% SDS-PAGE or 4/10% to 20% polyacrylamide gel. After electrophoresis and transfer onto a polyvinylidene difluoride (PVDF) membrane, specific protein bands were detected using appropriate primary antibodies (rabbit anti-Nox1, rabbit anti-α-synuclein, mouse anti-Ubiquitin, mouse anti-tyrosine hydroxylase (TH), and mouse anti-β-actin) and secondary antibodies conjugated to alkaline phosphatase or […] peroxidase (anti-rabbit or anti-mouse) followed by Enhanced Chemifluorescence (ECF) detection or Enhanced Chemiluminescence (ECL).
In general terms: Immunoblotting shows a protein as a band on a membrane.

The subject of a further assay is rat SN. The experiment in a line: Immunohistochemistry of SN sections, PQ rat model. The format is in vivo. As to the method:
The experiments were performed on rats, in accordance with the National Institutes for Health Guide for the Care and Use of Laboratory Animals. All procedures were approved by the local Animal Care and Use Committee. Male Wistar rats (8-10 weeks; Charles River) were maintained in a temperature/humidity-controlled environment under a 12 h light/dark cycle with ad libitum access to food and water. As depicted in FIG. 13A, each animal received four intraperitoneal injections, separated by 1 d, of either vehicle (saline) or PQ (10 mg/kg body weight; b.w.), according to a previously published dose (Manning-Bog et al., 2002; Harraz et al., 2008; Cristovao et al., 2009). All animals were weighed at day 1 and 12. In the studies using the paradigm depicted in FIG. 13A, 4 weeks before starting PQ intraperitoneal injection, animals were stereotaxically injected with various viral constructs at the right SN using the following coordinates: mediolateral, +2.0; anteroposterior, −5.3; dorsoventral, −6.8. Animals were organized into four groups: vector+vehicle: stereotaxically injected with adeno-associated virus (AAV) particles containing a green fluorescent protein (GFP) vector (vector) and then intraperitoneally injected with saline (vehicle) (n=10); vector+PQ: stereotaxically injected with vector and then intraperitoneally injected with PQ (n=10); shNox1+PQ: stereotaxically injected with AAV particles harboring Nox1 shRNA and then intraperitoneally injected with PQ (n=10); shNox1+vehicle: stereotaxically injected with Nox1 shRNA and then intraperitoneally injected with vehicle (n=8). AAV containing GFP vector was used as a negative control. Five days after the last PQ intraperitoneal injection, animals were killed. For Western blot analysis, brains were collected and total protein lysates from SN were prepared. For immunohistochemical analysis, animals were intracardially perfused before collecting the brains.
Following perfusion with saline and 4% PFA in PBS, brains were removed, and forebrain and midbrain blocks were immersion fixed in 4% PFA and cryoprotected in sucrose. Serial coronal sections (40 μm) were cut on a cryostat, collected in cryopreservative solution, and stored at −20° C. For immunolabeling studies, sections were incubated at room temperature with blocking solution for 1 h (5% FBS and 0.3% Triton X-100 in PBS, pH 7.5) and then with primary antibodies overnight. Finally, sections were incubated with secondary antibodies in blocking solution at room temperature for 1 h. The primary antibodies used were mouse anti-TH (1:10,000), rabbit anti-Nox1 (1:500), goat anti-4-HNE (1:700), mouse anti-ubiquitin (1:250), rabbit anti-α-synuclein (1:150), and rabbit anti-A11 oligomers (2.5 μg/ml). The secondary antibodies were biotinylated anti-rabbit IgG, anti-goat IgG, or anti-rat IgG (1:200). The staining procedure was performed as indicated by the manufacturer of the Vectastain ABC kit and the reaction product visualized using 3,3′-diaminobenzidine (DAB) reagent in TBS containing 0.02% H2O2. The numbers of TH-immunoreactive cells in the SN were counted using an optical fractionator. Analysis was performed using a system consisting of a Nikon Eclipse E600 microscope (Morrell Instruments) equipped with a computer-controlled LEP BioPoint motorized stage (Ludl Electronic Products), a DEI-750 video camera (Meyer Instruments), a Dell Dimension 4300 computer (Dell), and the Stereo Investigator (v. 4.35) software program (Microbrightfield).
Immunocytochemistry for proteinase K (PK)-resistant α-synuclein was performed based on a methodology reported previously (Neumann et al., 2002), with some modifications. Briefly, fixed cells were permeabilized with 0.1% Tween 20 and then digested for 30 min at 37° C. with PK (10 μg/ml). PK was inactivated with 3 M guanidine thiocyanate in 10 mM Tris-HCl solution for 10 min. Between each step, cells were washed gently three times with PBS. […]

Take `C[n+]1ccc(-c2cc[n+](C)cc2)cc1` [PQ, paraquat]: the “increase of α-synuclein protein levels” value with α-synuclein (800 μM, 8 h) worked out at 55%; in the assay on α-synuclein (800 μM, 24 h) it was 61%; with α-synuclein (1000 μM, 8 h), 60%; in the assay with α-synuclein (1000 μM, 24 h), 27%. Besides, the “immunoreactivity of A11 oligomers in the SN” value in the assay with rat SN (PQ, PQ with Nox1 knocked down) is “significant increase”. In the assay with rat SN (rats, PQ vs vehicle), the “α-Synuclein immunoreactivity in the SN” value is reported as “increased”. Moreover, the “4-HNE immunoreactivity (lipid peroxidation) in the SN” value in the assay on rat SN (rats, PQ vs vehicle, Nox1 shRNA+PQ vs PQ) is “increase”. Further, the “Nox1 immunoreactivity in the SN” value in the assay on rat SN (rats, PQ vs vehicle, Nox1 shRNA+PQ vs vector+PQ) is given as “upregulation”. The “PK-resistant α-synuclein immunoreactivity in the rat SN” value with rat SN (vector+PQ vs vector+vehicle, Nox1 shRNA+PQ) was “increase”. In the assay with rat SN (vector+PQ, Nox1 shRNA+PQ), the “ubiquitin immunoreactivity in the rat SN” value is “significant increase”.
